Laboratory results: patent US11708359B2, “Monoacylglycerol lipase modulators” (Janssen Pharmaceutica NV, priority 2020, dated 2023)

Molecular target: human MGL from HeLa cells (Homo sapiens (Human), UniProt Q99685)
Test: MGL in vitro activity assay ([glycerol-1,3-3H]-oleoyl glycerol cleavage, activated carbon filter)
Format: biochemical
Settings: not given
Description: The assay consists of combining endogenously expressed MGL from HeLa cells with test compounds, adding[glycerol-1,3-^3H]-oleoyl glycerol, incubating for one hour, and then measuring the amount of cleaved[1,3-^3H]-glycerol that passes through an activated carbon filter. The amount of cleaved, tritiated glycerol passing through the carbon filter is proportional to the activity of the MGL enzyme in a particular well/test condition.
Standard conditions for this assay combine 300 nM [Glycerol-1,3-^3H]-oleoyl glycerol with human MGL from HeLa cells and test compounds for one hour, after which the reaction is filtered through activated carbon and tritium is measured in the flow through. […] MGL is the predominant hydrolase in HeLa cells/cell homogenates.

Chain of human MGL from HeLa cells (Q99685 whole entry): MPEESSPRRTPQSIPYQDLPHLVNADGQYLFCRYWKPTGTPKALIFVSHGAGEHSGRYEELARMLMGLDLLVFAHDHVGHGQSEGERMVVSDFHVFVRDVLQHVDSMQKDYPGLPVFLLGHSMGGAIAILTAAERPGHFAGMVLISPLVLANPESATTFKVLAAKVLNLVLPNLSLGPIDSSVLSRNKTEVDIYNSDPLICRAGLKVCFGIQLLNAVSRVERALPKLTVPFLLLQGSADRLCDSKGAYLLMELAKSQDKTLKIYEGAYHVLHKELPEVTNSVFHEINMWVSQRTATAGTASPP

Compound | IC50
Cc1ccc(C23CCN(C(=O)[C@H]4C[C@]5(CCC(=O)N5)C4)CC2C3)cc1OC(F)(F)F (mixture of isomers) [Example 76, (rac)-(2r,4s)-2-(6-(4-Methyl-3-(trifluoromethoxy)phenyl)-3-azabicyclo[4.1.0]heptane-3-carbonyl)-5-azaspiro[3.4]octan-6-one] | 2.6 nM

Same assay, conditions: 300 nM [Glycerol-1,3-3H]-oleoyl glycerol, endogenously expressed MGL from HeLa cells, one hour incubation; read-out: MGL IC50

IC50 | Compound
14 nM | CC(C)c1ccc(C23CC2CN(C(=O)[C@H]2C[C@]4(CCC(=O)N4)C2)C3)cc1 (mixture of isomers) [Example 12, (rac)-(2r,4s)-2-(1-(4-Isopropylphenyl)-3-azabicyclo[3.1.0]hexane-3-carbonyl)-5-azaspiro[3.4]octan-6-one]
3.5 nM | CCc1ccc(C23CC2CN(C(=O)[C@H]2C[C@]4(COC(=O)N4)C2)C3)cc1 (mixture of isomers) [Example 94, (rac)-(2s,4s)-2-(1-(4-Ethylphenyl)-3-azabicyclo[3.1.0]hexane-3-carbonyl)-7-oxa-5-azaspiro[3.4]octan-6-one]
131 nM | CCc1ccc([C@H]2[C@@H]3CN(C(=O)[C@H]4C[C@]5(CCC(=O)N5)C4)C[C@@H]32)cc1 [Example 87, (2r,4S)-2-((1R,5S,6S)-6-(4-Ethylphenyl)-3-azabicyclo[3.1.0]hexane-3-carbonyl)-5-azaspiro[3.4]octan-6-one]
78 nM | Cc1c([C@H]2[C@@H]3CN(C(=O)[C@H]4C[C@]5(COC(=O)N5)C4)C[C@@H]32)cccc1C(F)(F)F [Example 113]
23 nM | CC(C)(C)c1ccc([C@@]23C[C@@H]2CN(C(=O)[C@H]2C[C@]4(CCC(=O)N4)C2)C3)cc1 (stereo in doubt) [Example 14, (2r,4*S)-2-((1*R,5*5)-1-(4-(tert-Butyl)phenyl)-3-azabicyclo[3.1.0]hexane-3-carbonyl)-5-azaspiro[3.4]octan-6-one]
0.64 nM | CC(C)(C)c1cccc([C@H]2[C@@H]3CN(C(=O)[C@H]4C[C@]5(COC(=O)N5)C4)C[C@@]32C)c1 (stereo in doubt) [Example 99, (2s,4*5)-2-((1*R,5*S,6*R)-6-(3-(tert-Butyl)phenyl)-1-methyl-3-azabicyclo[3.1.0]hexane-3-carbonyl)-7-oxa-5-azaspiro[3.4]octan-6-one]
2.8 nM | CC(C)c1ccc([C@H]2[C@@H]3CN(C(=O)[C@H]4C[C@]5(COC(=O)N5)C4)C[C@@H]32)cc1 [Example 90, (2s,4S)-2-((1R,5S,6S)-6-(4-Isopropylphenyl)-3-azabicyclo[3.1.0]hexane-3-carbonyl)-7-oxa-5-azaspiro[3.4]octan-6-one]
2.5 nM | Cc1cc(C(F)(F)F)ccc1C12CC1CN(C(=O)[C@H]1C[C@]3(COC(=O)N3)C1)C2 (mixture of isomers) [Example 33, (rac)-(2s,4s)-2-(1-(2-Methyl-4-(trifluoromethyl)phenyl)-3-azabicyclo[3.1.0]hexane-3-carbonyl)-7-oxa-5-azaspiro[3.4]octan-6-one]
1.9 nM | O=C1N[C@]2(CO1)C[C@H](C(=O)N1CCC3(c4cccc(C(F)(F)F)c4)CC3C1)C2 (mixture of isomers) [Example 57, (rac)-(2s,4s)-2-(6-(3-(Trifluoromethyl)phenyl)-3-azabicyclo[4.1.0]heptane-3-carbonyl)-7-oxa-5-azaspiro[3.4]octan-6-one]
136 nM | O=C1N[C@]2(CO1)C[C@H](C(=O)N1CC[C@@]3(c4ccccc4)C[C@H]3C1)C2 [Example 40, (2s,4S)-2-((1R,6S)-6-Phenyl-3-azabicyclo[4.1.0]heptane-3-carbonyl)-7-oxa-5-azaspiro[3.4]octan-6-one]
5.5 nM | CC(C)c1cccc([C@H]2[C@@H]3CN(C(=O)[C@H]4C[C@]5(COC(=O)N5)C4)C[C@@H]32)c1 [Example 84, (2s,4S)-2-((1R,5S,6S)-6-(3-Isopropylphenyl)-3-azabicyclo[3.1.0]hexane-3-carbonyl)-7-oxa-5-azaspiro[3.4]octan-6-one]
7.7 nM | Cc1ccc(C23CCN(C(=O)[C@H]4C[C@]5(COC(=O)N5)C4)CC2C3)cc1 (mixture of isomers) [Example 56, (rac)-(2s,4s)-2-(6-(p-Tolyl)-3-azabicyclo[4.1.0]heptane-3-carbonyl)-7-oxa-5-azaspiro[3.4]octan-6-one]
20 nM | O=C1N[C@]2(CO1)C[C@H](C(=O)N1CCC3(c4ccccc4)CC3C1)C2 (mixture of isomers) [Example 39, (rac)-(2s,4s)-2-(6-Phenyl-3-azabicyclo[4.1.0]heptane-3-carbonyl)-7-oxa-5-azaspiro[3.4]octan-6-one]
12 nM | O=C1CCC2(CC(C(=O)N3CC[C@]4(c5ccc(OC(F)(F)F)cc5)C[C@@H]4C3)C2)N1 (relative stereo) [Example 122, (2r,4*R)-2-((1*S,6*R)-6-(4-(Trifluoromethoxy)phenyl)-3-azabicyclo[4.1.0]heptane-3-carbonyl)-5-azaspiro[3.4]octan-6-one]
2.9 nM | Cc1ccc(C23CC2CN(C(=O)[C@H]2C[C@]4(COC(=O)N4)C2)C3)cc1Cl (mixture of isomers) [Example 30, (rac)-(2s,4s)-2-(1-(3-Chloro-4-methylphenyl)-3-azabicyclo[3.1.0]hexane-3-carbonyl)-7-oxa-5-azaspiro[3.4]octan-6-one]
14 nM | O=C1N[C@]2(CO1)C[C@H](C(=O)N1CC3CC3(c3cccc(C(F)(F)F)c3)C1)C2 (mixture of isomers) [Example 23, (rac)-(2s,4s)-2-(1-(3-(Trifluoromethyl)phenyl)-3-azabicyclo[3.1.0]hexane-3-carbonyl)-7-oxa-5-azaspiro[3.4]octan-6-one]
32 nM | Cc1cccc([C@@]23CCN(C(=O)[C@H]4C[C@]5(COC(=O)N5)C4)C[C@@H]2C3)c1 (stereo in doubt) [Example 45, (2s,4*5)-2-((1*R,6*S)-6-(m-Tolyl)-3-azabicyclo[4.1.0]heptane-3-carbonyl)-7-oxa-5-azaspiro[3.4]octan-6-one]
10 nM | O=C1CC[C@]2(C[C@H](C(=O)N3CCC4(c5ccc(OC(F)(F)F)cc5)CC4C3)C2)N1 (mixture of isomers) [Example 55, (rac)-(2r,4s)-2-(6-(4-(Trifluoromethoxy)phenyl)-3-azabicyclo[4.1.0]heptane-3-carbonyl)-5-azaspiro[3.4]octan-6-one]
5.2 nM | Cc1ccc([C@H]2[C@@H]3CN(C(=O)[C@H]4C[C@]5(COC(=O)N5)C4)C[C@@H]32)cc1OC(F)(F)F [Example 115, (2s,4S)-2-((1R,5S,6S)-6-(4-Methyl-3-(trifluoromethoxy)phenyl)-3-azabicyclo[3.1.0]hexane-3-carbonyl)-7-oxa-5-azaspiro[3.4]octan-6-one]
2.2 nM | CC(C)c1ccc(C23CC2CN(C(=O)[C@H]2C[C@]4(COC(=O)N4)C2)C3)cc1 (mixture of isomers) [Example 9, (rac)-(2s,4s)-2-(1-(4-Isopropylphenyl)-3-azabicyclo[3.1.0]hexane-3-carbonyl)-7-oxa-5-azaspiro[3.4]octan-6-one]
241 nM | O=C1N[C@]2(CO1)C[C@H](C(=O)N1CCC3CC3(c3ccccc3)C1)C2 (mixture of isomers) [Example 77, (rac)-(2s,4s)-2-(1-Phenyl-3-azabicyclo[4.1.0]heptane-3-carbonyl)-7-oxa-5-azaspiro[3.4]octan-6-one]
8.3 nM | CC(C)(C)c1cccc([C@@H]2[C@H]3CN(C(=O)[C@H]4C[C@]5(COC(=O)N5)C4)C[C@]32C)c1 (stereo in doubt) [Example 100, (2s,4*R)-2-((1*S,5*R,6*5)-6-(3-(tert-Butyl)phenyl)-1-methyl-3-azabicyclo[3.1.0]hexane-3-carbonyl)-7-oxa-5-azaspiro[3.4]octan-6-one]
49 nM | O=C1N[C@]2(CO1)C[C@H](C(=O)N1CC3CC3(c3ccccc3)C1)C2 (mixture of isomers) [Example 4, (rac)-(2s,4s)-2-(1-Phenyl-3-azabicyclo[3.1.0]hexane-3-carbonyl)-7-oxa-5-azaspiro[3.4]octan-6-one]
2.3 nM | CC(C)c1ccc([C@@]23C[C@@H]2CN(C(=O)[C@H]2C[C@]4(COC(=O)N4)C2)C3)cc1 (stereo in doubt) [Example 10, (2s,4*5)-2-((1*R,5*S)-1-(4-Isopropylphenyl)-3-azabicyclo[3.1.0]hexane-3-carbonyl)-7-oxa-5-azaspiro[3.4]octan-6-one]
0.52 nM | CC1(c2ccc(C34CCN(C(=O)[C@H]5C[C@]6(CCC(=O)N6)C5)CC3C4)cc2)CC1 (mixture of isomers) [Example 70, (rac)-(2r,4s)-2-(6-(4-(1-Methylcyclopropyl)phenyl)-3-azabicyclo[4.1.0]heptane-3-carbonyl)-5-azaspiro[3.4]octan-6-one]
6.5 nM | Cc1cc(C23CC2CN(C(=O)[C@H]2C[C@]4(COC(=O)N4)C2)C3)ccc1OC(F)(F)F (mixture of isomers) [Example 35, (rac)-(2s,4s)-2-(1-(3-Methyl-4-(trifluoromethoxy)phenyl)-3-azabicyclo[3.1.0]hexane-3-carbonyl)-7-oxa-5-azaspiro[3.4]octan-6-one]

Compound | IC50
O=C1N[C@]2(CO1)C[C@H](C(=O)N1CC[C@]3(c4cccc(OC(F)(F)F)c4)C[C@@H]3C1)C2 (stereo in doubt) [Example 50, (2s,4*R)-2-((1*S,6*R)-6-(3-(Trifluoromethoxy)phenyl)-3-azabicyclo[4.1.0]heptane-3-carbonyl)-7-oxa-5-azaspiro[3.4]octan-6-one] | 4.2 nM
O=C1CC[C@]2(C[C@H](C(=O)N3CCC4(c5cccc(OC(F)(F)F)c5)CC4C3)C2)N1 (mixture of isomers) [Example 52, (rac)-(2r,4s)-2-(6-(3-(Trifluoromethoxy)phenyl)-3-azabicyclo[4.1.0]heptane-3-carbonyl)-5-azaspiro[3.4]octan-6-one] | 4.8 nM
O=C1N[C@]2(CO1)C[C@H](C(=O)N1CC[C@@]3(c4cccc(OC(F)(F)F)c4)C[C@H]3C1)C2 (stereo in doubt) [Example 51, (2s,4*S)-2-((1*R,6*S)-6-(3-(Trifluoromethoxy)phenyl)-3-azabicyclo[4.1.0]heptane-3-carbonyl)-7-oxa-5-azaspiro[3.4]octan-6-one] | 0.52 nM
